Measured values as given in patent EP0647618A1, “NEW NON IONIC IODINE-CONTAINING DIMERS USEFUL AS X-RAY CONTRAST AGENTS, METHOD FOR THE PREPARATION THEREOF, AND GALENICAL COMPOSITIONS CONTAINING THEM” (CENTRO INVESTIGACION JUSTESA IMAGEN S.A., priority 1993, dated 1994).
Read-outs that look alike come from different tables or passages of the source.

Assays:
[1] = Osmolality of aqueous solution at 300 mg I/ml; assay type: physicochemical; settings: for OSMOLALITY mOsm/kg at 300 mg I/ml: 300 mg I/ml (Table II); for OSMOLALITY 37°C mOsm/kg at 300 mg I/ml: 300 mg I/ml (Table I)
[2] = Viscosity of aqueous solution at 300 mg I/ml; assay type: physicochemical; settings: for VISCOSITY 37°C mPa.s 300 mg I/ml: 300 mg I/ml (Table I); for VISCOSITY mPas (37°C) at 300 mg I/ml: 300 mg I/ml (Table II)
RAT = assay: General toxicity, average lethal dose (DL50) in the rat, i.v.; assay type: in vivo
Description: (§1) On the other hand, radiologists need compounds with a wide range of uses: for example, angiography, urography, myelography, cisternography, lymphography, cardiography and gastrography. The products according to this invention fulfil the requirements for the above uses, as they have high water solubility, normally higher than 60% (w/v), which, in some cases, is as high as 100% at 20°C, without showing any tendency to crystallize. They also have a very low general toxicity, stated as the average lethal dose for the rat, DL₅₀.

physchem = assay type: physicochemical; settings: for solubility: water
Description: as §1

[3] = 20°C (Table II), read-out: SOLUBILITY IN WATER at 20°

Row | SMILES | OSMOLALITY mOsm/kg at 300 mg I/ml [1] [mOsm/kg] | OSMOLALITY 37°C mOsm/kg at 300 mg I/ml [1] [mOsm/kg] | VISCOSITY 37°C mPa.s 300 mg I/ml [2] [mPa.s] | VISCOSITY mPas (37°C) at 300 mg I/ml [2] [mPas] | DL50 (RAT) via i.v. g I/kg (RAT) [g I/kg] | SOLUBILITY IN WATER at 20° (physchem) [%] | solubility (physchem) [mg/mL] | SOLUBILITY IN WATER at 20° (physchem; 20°C (Table II)) [%] | solubility (physchem; 20°C (Table I), read-out: SOLUBILITY in water at 20°C (w/v)) [mg/mL] | solubility (physchem; [3]) [mg/mL]
1 | CN(C(=O)CN(CCO)CC(=O)N(C)c1c(I)c(C(=O)NCC(O)CO)c(I)c(C(=O)NCC(O)CO)c1I)c1c(I)c(C(=O)NCC(O)CO)c(I)c(C(=O)NCC(O)CO)c1I (stereo not shown) [ICJ-1692, N,N'-Bis-{3,5-bis-[N-(2,3-dihydroxypropyl)carbamoyl]-2,4,6-triiodophenyl}-N,N'-dimethyl-3-(2-hydroxethyl)-3-azapentanediamide] | 174 | 174 | 9.3 | 9.3 | > 20 | > 60 | > 600 |  |  | 
2 | CC(=O)N(CC(O)CN(C(C)=O)c1c(I)c(C(=O)NCC(O)CO)c(I)c(C(=O)NCC(O)CO)c1I)c1c(I)c(C(=O)NCC(O)CO)c(I)c(C(=O)NCC(O)CO)c1I (stereo not shown) [IODIXANOL, Iodixanol, reference compound] |  | 190 | 8.7 |  | > 20 |  | > 600 |  |  | 
3 | O=C(CN(CCO)CC(=O)Nc1c(I)c(C(=O)NC(CO)C(O)CO)c(I)c(C(=O)NC(CO)C(O)CO)c1I)Nc1c(I)c(C(=O)NCCO)c(I)c(C(=O)NCCO)c1I (stereo not shown) [ICJ-1592] | 151 | 151 | 8.4 | 8.4 | > 20 | > 60 | > 600 |  |  | 
4 | O=C(CN(CCO)CC(=O)Nc1c(I)c(C(=O)NCC(O)CO)c(I)c(C(=O)NCC(O)CO)c1I)Nc1c(I)c(C(=O)NCC(O)CO)c(I)c(C(=O)NCC(O)CO)c1I (stereo not shown) [ICJ-1192, N,N'-Bis-{3,5-bis-[N-(2,3-dihydroxypropyl)carbamoyl]-2,4,6-triiodophenyl}-3-(2-hydroxyethyl)-3-azapentanediamide] | 167 | 167 | 9.4 | 9.4 | > 25 |  |  | > 60 | > 600 | 
5 | O=C(CN(CC(=O)Nc1c(I)c(C(=O)NCC(O)CO)c(I)c(C(=O)NCC(O)CO)c1I)CC(O)CO)Nc1c(I)c(C(=O)NCC(O)CO)c(I)c(C(=O)NCC(O)CO)c1I (stereo not shown) [ICJ-1092, N,N'-Bis-{3,5-bis-[N-(2,3-dihydroxypropyl)carbamoyl]-2,4,6-triiodophenyl}-3-(2,3-dihydroxypropyl)-3-azapentanediamide] | 193 |  |  | 10.3 |  |  |  |  |  | > 600
6 | CN(C(=O)CN(CCO)CC(=O)N(C)c1c(I)c(C(=O)NC(CO)C(O)CO)c(I)c(C(=O)NC(CO)C(O)CO)c1I)c1c(I)c(C(=O)NCCO)c(I)c(C(=O)NCCO)c1I (stereo not shown) [ICJ-2092, N-{3,5-Bis-[N-(1-hydroxymethyl-2,3-dihydroxypropyl)carbamoyl]-2,4,6-triiodophenyl}-N'-{3,5-bis-[N-(2-hydroxyethyl)carbamoyl]-2,4,6-triiodophenyl}-N,N'-dimethyl-3-(2-hydroxyethyl)-3-azapentanediamide] | 188 |  |  | 9.5 |  |  |  |  |  | > 600
